Assay results as given in patent US11970473B2, “Nootkatone derivatives and methods of using the same” (Arkansas State University—Jonesboro, priority 2021, dated 2024).
Values after ≈ are worked out from the molar mass of the structure shown.

Legend:
Assay in all cases: Minimal inhibitory concentration (MIC) assay
Type in all cases: cell-based
[1] = test system: B. subtilis ATCC 6623 (Bs); conditions: Bacillus subtilis, ATCC6623; B. subtilis ATCC 6623; read-out: Antimicrobial activity (MIC) Bs
Description: (§1) Minimal inhibitory concentration (MIC) assay The standard microdilution method recommended by the Clinical and Laboratory Standards Institute (CLSI) was used to determine the MIC of the antibiotics. The starting concentration of compounds was 50 μg/ml and 2-fold dilution was done down the 96 honeycomb well plate column. The MIC assay was conducted in triplicates.

[2] = test system: S. aureus ATCC 33591 (Sa91); conditions: Staphylococcus aureus, ATCC33591; S. aureus ATCC 33591, antibiotic-resistant strain; read-out: Antimicrobial activity (MIC) Sa91
Description: as §1

[3] = test system: S. aureus ATCC 33592 (Sa92); conditions: Staphylococcus aureus, ATCC33592; S. aureus ATCC 33592, antibiotic-resistant strain; read-out: Antimicrobial activity (MIC) Sa92
Description: as §1

[4] = test system: Enterococcus faecium ATCC 700221 (Em21); conditions: Enterococcus faecium, ATCC700221, Enterococcus faecium ATCC 700221; read-out: Antimicrobial activity (MIC) Em21
Description: as §1

[5] = test system: S. epidermidis 700296 (Se); conditions: Staphylococcus epidermidis, S. epidermidis 700296; read-out: Antimicrobial activity (MIC) Se
Description: as §1

[6] = test system: S. aureus BAA-2312 (Sa12); conditions: Staphylococcus aureus, BAA2312; S. aureus BAA-2312, antibiotic-resistant strain; read-out: Antimicrobial activity (MIC) Sa12
Description: as §1

[7] = test system: Enterococcus faecalis ATCC 29212 (Es12); conditions: ATCC29212; Enterococcus faecalis ATCC 29212; read-out: Antimicrobial activity (MIC) Es12
Description: as §1

[8] = test system: S. aureus ATCC 700699 (Sa99); conditions: Staphylococcus aureus, ATCC700699; S. aureus ATCC 700699, antibiotic-resistant strain; read-out: Antimicrobial activity (MIC) Sa99
Description: as §1

[9] = test system: S. aureus ATCC 25923 (Sa23); conditions: Staphylococcus aureus, ATCC25923; S. aureus ATCC 25923, antibiotic susceptible strain; read-out: Antimicrobial activity (MIC) Sa23
Description: as §1

## C=C(C)[C@@H]1CC=C2c3sc(Nc4cccc(C(F)(F)F)c4)nc3CC[C@]2(C)[C@H]1C [Compound 28, (5aR,6S,7R)-7-isopropenyl-5a,6-dimethyl-N-[3-(trifluoromethyl)phenyl]-5,6,7,8-tetrahydro-4H-benzo[g][1,3]benzothiazol-2-amine]
[1]
  MIC: > 100 µg/mL
[2]
  MIC: > 100 µg/mL
[3]
  MIC: > 100 µg/mL
[4]
  MIC: > 100 µg/mL
[5]
  MIC: > 100 µg/mL
[6]
  MIC: > 100 µg/mL
[7]
  MIC: > 100 µg/mL
[8]
  MIC: > 100 µg/mL

## C=C(C)[C@@H]1CC=C2c3sc(-c4ccc(F)cc4)nc3C[C@@H](C)[C@]2(C)C1 [Compound 18, (5R,5aS,7R)-2-(4-fluorophenyl)-7-isopropenyl-5,5a-dimethyl-5,6,7,8-tetrahydro-4H-benzo[g][1,3]benzothiazole]
[1]
  MIC: > 100 µg/mL
[9]
  MIC: > 100 µg/mL
[2]
  MIC: 50 µg/mL (≈ 141 µM)
[3]
  MIC: > 100 µg/mL
[4]
  MIC: > 100 µg/mL
[5]
  MIC: > 100 µg/mL
[6]
  MIC: 25 µg/mL (≈ 70.7 µM)
[7]
  MIC: > 100 µg/mL
[8]
  MIC: > 100 µg/mL

## C=C(C)[C@@H]1CC=C2c3sc(Nc4ccc(F)cc4F)nc3C[C@@H](C)[C@]2(C)C1 [Compound 25, (5R,5aS,7R)—N-(2,4-difluorophenyl)-7-isopropenyl-5,5a-dimethyl-5,6,7,8-tetrahydro-4H-benzo[g][1,3]benzothiazol-2-amine]
[1]
  MIC: > 100 µg/mL
[9]
  MIC: 100 µg/mL (≈ 259 µM)
[2]
  MIC: > 100 µg/mL
[3]
  MIC: > 100 µg/mL
[4]
  MIC: > 100 µg/mL
[5]
  MIC: > 100 µg/mL
[6]
  MIC: > 100 µg/mL
[7]
  MIC: > 100 µg/mL
[8]
  MIC: > 100 µg/mL

## C=C(C)[C@@H]1CC=C2c3sc(-c4ccc(C(F)(F)F)cc4)nc3C[C@@H](C)[C@]2(C)C1 [Compound 22, (5R,5aS,7R)-7-isopropenyl-5,5a-dimethyl-2-[4-(trifluoromethyl)phenyl]-5,6,7,8-tetra-tetrahydro-4H-benzo[g][1,3]benzothiazole]
[1]
  MIC: > 100 µg/mL
[2]
  MIC: > 100 µg/mL
[3]
  MIC: > 100 µg/mL
[4]
  MIC: > 100 µg/mL
[5]
  MIC: > 100 µg/mL
[6]
  MIC: > 100 µg/mL
[7]
  MIC: > 100 µg/mL
[8]
  MIC: > 100 µg/mL

## C=C(C)[C@@H]1CC=C2c3sc(-c4ccc(Cl)cc4)nc3C[C@@H](C)[C@]2(C)C1 [Compound 19, (5R,5aS,7R)-2-(4-chlorophenyl)-7-isopropenyl-5,5a-dimethyl-5,6,7,8-tetrahydro-4H-benzo[g][1,3]benzothiazole]
[1]
  MIC: 12.5 µg/mL (≈ 33.8 µM)
[9]
  MIC: 25 µg/mL (≈ 67.6 µM)
[2]
  MIC: 50 µg/mL (≈ 135 µM)
[3]
  MIC: > 100 µg/mL
[4]
  MIC: > 100 µg/mL
[5]
  MIC: 50 µg/mL (≈ 135 µM)
[6]
  MIC: 25 µg/mL (≈ 67.6 µM)
[7]
  MIC: > 100 µg/mL
[8]
  MIC: 25 µg/mL (≈ 67.6 µM)

## C=C(C)[C@@H]1CC=C2c3sc(-c4cccc(O)c4)nc3C[C@@H](C)[C@]2(C)C1 [Compound 14, 3-[(5R,5aS,7R)-7-isopropenyl-5,5a-dimethyl-5,6,7,8-tetrahydro-4H-benzo[g][1,3]benzothiazol-2-yl]phenol]
[1]
  MIC: > 100 µg/mL
[9]
  MIC: 50 µg/mL (≈ 142 µM)
[2]
  MIC: > 100 µg/mL
[3]
  MIC: > 100 µg/mL
[4]
  MIC: > 100 µg/mL
[5]
  MIC: > 100 µg/mL
[6]
  MIC: > 100 µg/mL
[7]
  MIC: > 100 µg/mL
[8]
  MIC: > 100 µg/mL

## C=C(C)[C@@H]1CC=C2c3sc(-c4ccccc4O)nc3C[C@@H](C)[C@]2(C)C1 [Compound 13, 2-[(5R,5aS,7R)-7-isopropenyl-5,5a-dimethyl-5,6,7,8-tetrahydro-4H-benzo[g][1,3]benzothiazol-2-yl]phenol]
[1]
  MIC: 50 µg/mL (≈ 142 µM)
[9]
  MIC: 50 µg/mL (≈ 142 µM)
[2]
  MIC: 100 µg/mL (≈ 284 µM)
[3]
  MIC: > 100 µg/mL
[4]
  MIC: > 100 µg/mL
[5]
  MIC: > 100 µg/mL
[6]
  MIC: 100 µg/mL (≈ 284 µM)
[7]
  MIC: > 100 µg/mL
[8]
  MIC: > 100 µg/mL

## C=C(C)[C@@H]1CC=C2c3sc(Nc4ccccc4C(F)(F)F)nc3C[C@@H](C)[C@]2(C)C1 [Compound 27, (5R,5aS,7R)-7-isopropenyl-5,5a-dimethyl-N-[2-(trifluoromethyl)phenyl]-5,6,7,8-tetrahydro-4H-benzo[g][1,3]benzothiazol-2-amine]
[1]
  MIC: > 100 µg/mL
[2]
  MIC: > 100 µg/mL
[3]
  MIC: > 100 µg/mL
[4]
  MIC: > 100 µg/mL
[5]
  MIC: > 100 µg/mL
[6]
  MIC: > 100 µg/mL
[7]
  MIC: > 100 µg/mL
[8]
  MIC: > 100 µg/mL

## C=C(C)[C@@H]1CC=C2c3sc(-c4ccc(Oc5ccc(C(F)(F)F)cn5)cc4)nc3C[C@@H](C)[C@]2(C)C1 [Compound 12, (5R,5aS,7R)-7-isopropenyl-5,5a-dimethyl-2-[4-[[5-(trifluoromethyl)-2-pyridyl]oxy]phenyl]-5,6,7,8-tetrahydro-4H-benzo[g][1,3]benzothiazole]
[1]
  MIC: > 100 µg/mL
[2]
  MIC: > 100 µg/mL
[3]
  MIC: > 100 µg/mL
[4]
  MIC: > 100 µg/mL
[5]
  MIC: > 100 µg/mL
[6]
  MIC: > 100 µg/mL
[7]
  MIC: > 100 µg/mL
[8]
  MIC: > 100 µg/mL

## C=C(C)[C@@H]1CC=C2c3sc(-c4ccc(C(C)(C)C)cc4)nc3C[C@@H](C)[C@]2(C)C1 [Compound 9, (5R,5aS,7R)-2-(4-tert-butylphenyl)-7-isopropenyl-5,5a-dimethyl-5,6,7,8-tetrahydro-4H-benzo[g][1,3]benzothiazole]
[1]
  MIC: > 100 µg/mL
[2]
  MIC: > 100 µg/mL
[3]
  MIC: > 100 µg/mL
[4]
  MIC: > 100 µg/mL
[5]
  MIC: > 100 µg/mL
[6]
  MIC: > 100 µg/mL
[7]
  MIC: > 100 µg/mL
[8]
  MIC: > 100 µg/mL

## C=C(C)[C@@H]1CC=C2c3sc(-c4ccc(Br)cc4)nc3C[C@@H](C)[C@]2(C)C1 [Compound 20, (5R,5aS,7R)-2-(4-bromophenyl)-7-isopropenyl-5,5a-dimethyl-5,6,7,8-tetrahydro-4H-benzo[g][1,3]benzothiazole]
[1]
  MIC: > 100 µg/mL
[9]
  MIC: > 100 µg/mL
[2]
  MIC: 50 µg/mL (≈ 121 µM)
[3]
  MIC: > 100 µg/mL
[4]
  MIC: > 100 µg/mL
[5]
  MIC: > 100 µg/mL
[6]
  MIC: > 100 µg/mL
[7]
  MIC: > 100 µg/mL
[8]
  MIC: > 100 µg/mL

## C=C(C)[C@@H]1CC=C2c3sc(C4CCOCC4)nc3C[C@@H](C)[C@]2(C)C1 [Compound 5, (5R,5aS,7R)-7-isopropenyl-5,5a-dimethyl-2-tetrahydropyran-4-yl-5,6,7,8-tetrahydro-4H-benzo[g][1,3]benzothiazole]
[1]
  MIC: 50 µg/mL (≈ 146 µM)
[9]
  MIC: 100 µg/mL (≈ 291 µM)
[2]
  MIC: > 100 µg/mL
[3]
  MIC: 100 µg/mL (≈ 291 µM)
[4]
  MIC: > 100 µg/mL
[5]
  MIC: > 100 µg/mL
[6]
  MIC: 100 µg/mL (≈ 291 µM)
[7]
  MIC: > 100 µg/mL
[8]
  MIC: > 100 µg/mL

## C=C(C)[C@@H]1CC=C2c3sc(-c4ccc(F)c(F)c4)nc3C[C@@H](C)[C@]2(C)C1 [Compound 21, (5R,5aS,7R)-2-(3,4-difluorophenyl)-7-isopropenyl-5,5a-dimethyl-5,6,7,8-tetrahydro-4H-benzo[g][1,3]benzothiazole]
[1]
  MIC: > 100 µg/mL
[9]
  MIC: 100 µg/mL (≈ 269 µM)
[2]
  MIC: > 100 µg/mL
[3]
  MIC: 1.56 µg/mL (≈ 4.2 µM)
[4]
  MIC: > 100 µg/mL
[5]
  MIC: > 100 µg/mL
[6]
  MIC: > 100 µg/mL
[7]
  MIC: > 100 µg/mL
[8]
  MIC: > 100 µg/mL

## C=C(C)[C@@H]1CC=C2c3sc(Nc4ccc(F)cc4)nc3C[C@@H](C)[C@]2(C)C1 [Compound 24, (5R,5aS,7R)—N-(4-fluorophenyl)-7-isopropenyl-5,5a-dimethyl-5,6,7,8-tetrahydro-4H-benzo[g][1,3]benzothiazol-2-amine]
[1]
  MIC: 100 µg/mL (≈ 271 µM)
[9]
  MIC: 50 µg/mL (≈ 136 µM)
[2]
  MIC: > 100 µg/mL
[3]
  MIC: > 100 µg/mL
[4]
  MIC: > 100 µg/mL
[5]
  MIC: > 100 µg/mL
[6]
  MIC: > 100 µg/mL
[7]
  MIC: > 100 µg/mL
[8]
  MIC: > 100 µg/mL

## C=C(C)[C@@H]1CC=C2c3sc(-c4ccc([N+](=O)[O-])cc4)nc3C[C@@H](C)[C@]2(C)C1 [Compound 23, (5R,5aS,7R)-7-isopropenyl-5,5a-dimethyl-2-(4-nitrophenyl)-5,6,7,8-tetrahydro-4H-benzo [g][1,3]benzothiazole]
[1]
  MIC: > 100 µg/mL
[2]
  MIC: > 100 µg/mL
[3]
  MIC: > 100 µg/mL
[4]
  MIC: > 100 µg/mL
[5]
  MIC: > 100 µg/mL
[6]
  MIC: > 100 µg/mL
[7]
  MIC: > 100 µg/mL
[8]
  MIC: > 100 µg/mL

## C=C(C)[C@@H]1CC=C2c3sc(-c4ccccc4)nc3C[C@@H](C)[C@]2(C)C1 [Compound 7, (5R,5aS,7R)-7-isopropenyl-5,5a-dimethyl-2-phenyl-5,6,7,8-tetrahydro-4H-benzo[g][1,3]benzothiazole]
[1]
  MIC: > 100 µg/mL
[2]
  MIC: > 100 µg/mL
[3]
  MIC: > 100 µg/mL
[4]
  MIC: > 100 µg/mL
[5]
  MIC: > 100 µg/mL
[6]
  MIC: > 100 µg/mL
[7]
  MIC: > 100 µg/mL
[8]
  MIC: > 100 µg/mL

## C=C(C)[C@@H]1CC=C2c3sc(Nc4ccccc4[N+](=O)[O-])nc3C[C@@H](C)[C@]2(C)C1 [Compound 29, (5R,5aS,7R)-7-isopropenyl-5,5a-dimethyl-N-(2-nitrophenyl)-5,6,7,8-tetrahydro-4H-benzo[g][1,3]benzothiazol-2-amine]
[1]
  MIC: > 100 µg/mL
[2]
  MIC: > 100 µg/mL
[3]
  MIC: > 100 µg/mL
[4]
  MIC: > 100 µg/mL
[5]
  MIC: > 100 µg/mL
[6]
  MIC: > 100 µg/mL
[7]
  MIC: > 100 µg/mL
[8]
  MIC: > 100 µg/mL
